Test results taken from PMC12436592 (Nature Communications, 2025).
Values joined by “and” are separate entries in the source; they are usually repeats but may differ in a detail not shown here. Equal entries are not always repeated. One block for each molecule: values may come before it.

Molecular target: T1, hP2X7R (Homo sapiens, UniProt Q99572)
T1 sequence (Q99572 1-595): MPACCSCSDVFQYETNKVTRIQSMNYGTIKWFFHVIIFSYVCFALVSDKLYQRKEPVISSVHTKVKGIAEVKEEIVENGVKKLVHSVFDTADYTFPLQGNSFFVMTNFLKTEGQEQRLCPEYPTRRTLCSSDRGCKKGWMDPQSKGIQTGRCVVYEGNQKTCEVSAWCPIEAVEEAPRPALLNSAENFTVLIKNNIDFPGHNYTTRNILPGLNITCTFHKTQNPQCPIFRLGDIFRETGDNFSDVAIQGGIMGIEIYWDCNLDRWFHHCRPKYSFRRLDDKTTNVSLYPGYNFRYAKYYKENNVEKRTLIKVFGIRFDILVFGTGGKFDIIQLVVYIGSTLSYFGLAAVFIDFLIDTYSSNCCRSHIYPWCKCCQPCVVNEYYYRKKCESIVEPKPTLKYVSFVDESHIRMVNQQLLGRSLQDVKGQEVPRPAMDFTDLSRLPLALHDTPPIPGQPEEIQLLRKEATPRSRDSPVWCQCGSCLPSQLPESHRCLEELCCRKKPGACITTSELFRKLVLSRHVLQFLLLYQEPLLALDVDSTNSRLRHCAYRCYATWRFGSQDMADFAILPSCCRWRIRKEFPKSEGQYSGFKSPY
Test: TEVC determination of antagonist binding kinetics in Xenopus oocytes
Format: cell-based
Parameters: expressed in transfected cells; host or cells: Xenopus laevis oocytes injected with capped cRNA (modified pUC19 vector, T7)
Details: for IC50: Supplementary Fig. 10D, read-out: IC50 from binding equilibrium (plateau) dose inhibition curve; for off-rate of binding to the hP2X7R: graphically determined (y-intercept); for off-rate, Response [%]: single replicates
Description: Xenopus laevis frogs were from Nasco International (Fort Atkinson, WI) and kept at the Core Facility Animal Models (CAM) of the Biomedical Center (BMC) of LMU Munich, Germany (Az:4.3.2–5682/LMU/BMC/CAM) in accordance with the EU Animal Welfare Act. Ovaries were surgically extracted (ROB_54-011-AZ 2532.Vet_02-23-166), treated with collagenase (Nordmark, Uetersen, Germany 1.0–1.5 mg/mL, ≥2 at RT) and defolliculated (15-min treatment in Ca^2+-free oocyte Ringer (90 mM NaCl, 1 mM KCl, 2 mM MgCl2, 5 mM HEPES), respectively. 50 nL of cRNA (0.5 µg/µL) were injected using a Nanoject II injector (Science Products, Drummond) and oocytes were kept in ND96 (96 mM NaCl, 2 mM KCl, 1 mM MgCl2, 1 mM CaCl2, 5 mM HEPES, pH 7.4–7.5). The plasmid containing the hP2X7R was linearized with NotI-HF (NEB) and purified with the MinElute Reaction Cleanup Kit (Qiagen, Hilden, Germany). Capped cRNA was synthesized using the mMESSAGE mMACHINE™ T7 Transcription Kit (ThermoFisher Scientific, Schwerte, Germany) and dissolved in nuclease-free water (500 ng/µL). Injected oocytes were allowed to express for at least 36 hours.
Two-electrode voltage clamp recordings were performed at room temperature and a holding potential of −70 mV using a Turbo Tec-05X Amplifier (npi electronic, Tamm, Germany), a magnetic valve system, and CellWorks E 5.5.1 software. Currents were filtered at 1 kHz and digitized at 200 Hz. Electrode resistances were below 1.2 MΩ. […] Recordings were performed in ND96.
After obtaining reproducible agonist-evoked responses, solutions were switched to antagonist-containing recording solutions with and without ATP to determine association rates. Responses following antagonist application were normalized to the preceding, stabilized agonist responses. Dissociation was determined in 1- or 2 min intervals when currents were reduced to <10%. Association curves were fit to the data by the equation % Response = (100-Plateau)*exp(-kobs*Time) + Plateau, where Plateau indicates the response at equilibrium and kobs the experimentally determined on-rate. All data were analyzed using Prism software (GraphPad Software, Inc., Version 8.3.0, San Diego, CA) and are presented as means ± SD from at least three oocytes. […] The final concentration of DMSO in the recording solution was ≤1%.
Supplementary Fig. 10: Kinetics of ligands binding to the hP2X7R measured by TEVC. (A) […]
All data represented as mean ± S.D. with n=3, 7, 7, and 7 f or the experiments performed at 3 nM, 10 nM, 30 nM, and 100 nM […]
(B) Representative current traces for t he activation
(C) On- and off-r at e constants and Ki
Observed on- r at es kobs were determined by fitting the data (Fig. 4H, Supplementary Fig. 10A) to the function: % response = (100- Plateau)*exp(-kobs*time)+Plateau and plotted against the antagonist concentrations to obtain koff according to k obs=kon*F+koff. Assuming a (simplified) 1:1 binding model, of f-r at e constant koff and Ki values were estimated using the previous formulas as well as Ki=koff/kon. […]
determined by Ca2+ imaging (18 nM, Fig. 3B ) and the binding equilibrium reached at each […]
values of UB-MBX-46 c annot reflect an accurate value due to the nearly negligible dissociation on the timescale of the experiment. If k off was estimated based on the IC50 value (IC50 = koff/kon panel D), a more accurate koff value can be obtained. Numbers in square brackets are 95% Confidence Intervals. *values obtained from an extrapolated dose inhibition curve from D . (D) The plateau values, representing the binding equilibrium, were used to generate dose inhibition

- Ki (Ki=koff/kon, 1:1 binding model): 0.028 µM
- IC50 (TEVC): 0.015 µM
- off-rate of binding to the hP2X7R (TEVC): 0.29 min⁻¹
- Response %, plateau (binding equilibrium) (log [Antagonist] M -7): 5.6% and 1.4% and 0% and 2.8%
- Response %, plateau (binding equilibrium) (log [Antagonist] M -8): 55.2% and 63.2% and 73.1%
- off-rate, Response [%] (time 2 min): 6.1% and 5.1% and 4% and 3.2% and 6.5%
Compound: O=C(NNc1ccccc1Cl)C12CC3CC(CC(C3)C1)C2 [UB-ALT-P30, reference compound]
- off-rate, Response [%] (time 4 min): 18.2% and 19.2% and 16% and 12.9% and 19.4%
- off-rate, Response [%] (time 6 min): 33.3% and 37.2% and 28% and 29% and 32.3%
- off-rate, Response [%] (time 8 min): 48.5% and 57.7% and 44% and 38.7% and 48.4%
- off-rate, Response [%] (time 10 min): 63.6% and 73.1% and 60% and 54.8% and 64.5%

- Response [%], on-rate to hP2X7R (3 nM, 8 min): 81.7% and 82.6% and 84.4%
- Response [%], on-rate to hP2X7R (3 nM, 10 min): 79.7% and 80.2% and 82.1%
- Response [%], on-rate to hP2X7R (3 nM, 12 min): 77.1% and 77.3% and 80.4%
- Response [%], on-rate to hP2X7R (3 nM, 14 min): 75.7% and 75% and 78.9%
- Response [%], on-rate to hP2X7R (3 nM, 16 min): 74.3% and 73.3% and 77.9%
- Response [%], on-rate to hP2X7R (3 nM, 18 min): 72.4% and 72% and 76.9%
- Response [%], on-rate to hP2X7R (3 nM, 20 min): 71.3% and 75.5%
- Response [%], on-rate to hP2X7R (3 nM, 22 min): 71.1% and 69.9% and 74.3%
- Response [%], on-rate to hP2X7R (3 nM, 24 min): 70.1% and 68.7% and 73%
- Response [%], on-rate to hP2X7R (3 nM, 26 min): 68.4% and 67% and 71.9%
- Response [%], on-rate to hP2X7R (3 nM, 28 min): 67.5%
- Response [%], on-rate to hP2X7R (10 nM, 8 min): 46.2% and 42.1% and 45.9% and 43.2%
- Response [%], on-rate to hP2X7R (10 nM, 10 min): 38.5% and 32.7% and 36.4% and 35.2%
- Response [%], on-rate to hP2X7R (10 nM, 12 min): 32.3% and 28.4% and 29.5% and 27.9%
- Response [%], on-rate to hP2X7R (10 nM, 14 min): 27.8% and 23.8% and 23.7% and 22%
- Response [%], on-rate to hP2X7R (10 nM, 16 min): 24.1% and 19.5% and 19% and 18.8%
- Response [%], on-rate to hP2X7R (10 nM, 18 min): 21.6% and 17% and 14.3% and 15.8%
- Response [%], on-rate to hP2X7R (10 nM, 20 min): 17.8% and 14.3% and 12.1% and 13.7%
- Response [%], on-rate to hP2X7R (10 nM, 22 min): 14.9% and 12.5% and 10.6% and 11.9%
- Response [%], on-rate to hP2X7R (10 nM, 24 min): 12.6% and 11.2% and 8.8% and 10.6%
- Response [%], on-rate to hP2X7R (10 nM, 26 min): 11% and 9.8% and 7.8% and 9.3%
- Response [%], on-rate to hP2X7R (30 nM, 10 min): 13.8% and 4.3% and 7.1% and 7.5%
- Response [%], on-rate to hP2X7R (30 nM, 12 min): 8.8% and 2.5% and 5.3% and 5.2%
- Response [%], on-rate to hP2X7R (30 nM, 14 min): 6% and 1.6% and 3.8% and 3.4%
- Response [%], on-rate to hP2X7R (30 nM, 16 min): 4.7% and 0.9% and 2.8% and 2.9%
- Response [%], on-rate to hP2X7R (30 nM, 18 min): 3% and 0.6% and 2.3% and 2%
- Response [%], on-rate to hP2X7R (30 nM, 20 min): 1.7% and 0.4% and 2%
- Response [%], on-rate to hP2X7R (30 nM, 22 min): 1.2% and 0.4% and 1.8%
- Response [%], on-rate to hP2X7R (100 nM, 8 min): 0.4% and 0.9% and 0.6% and 1.9%
- antagonism of the hP2X7R (TEVC, 300 µM ATP, 100 nM antagonist): strong antagonism
- IC50 (TEVC): 0.0038 µM
- off-rate of binding to the hP2X7R (TEVC): 0.07 min⁻¹
- Response %, plateau (binding equilibrium) (log [Antagonist] M -7.5): 0.2898% and 1.031% and 2.642% and 2.211%
- Response %, plateau (binding equilibrium) (log [Antagonist] M -8.5): 67.01% and 62.07% and 63.87%
- off-rate, Response [%] (time 1 min): 2.6% and 0.9% and 1.5%
- off-rate, Response [%] (time 2 min): 2.8% and 1.3% and 1.5%
- off-rate, Response [%] (time 3 min): 3.3% and 1.5% (2×)
- off-rate, Response [%] (time 4 min): 3.1% and 1.7% and 1.5%
- off-rate, Response [%] (time 5 min): 2.6% and 1.7% and 1.5%
- off-rate, Response [%] (time 6 min): 2.6% and 2% and 1.5%
- off-rate, Response [%] (time 7 min): 2.9% and 2.3% and 1.5%
- off-rate, Response [%] (time 8 min): 2.9% and 2.3% and 1.5%
- off-rate, Response [%] (time 9 min): 2.9% and 2.5% and 1.5%
- off-rate, Response [%] (time 10 min): 3.3% and 2.5% and 1.5%
- antagonist dissociation from the hP2X7R (within 10 min of wash-out): virtually irreversible binding
Compound: CC12CC3CC1(C)C1(C)CC3(C(=O)NNc3ccccc3Cl)CC21C [UB-MBX-46]
- Response %, plateau (binding equilibrium) (log [Antagonist] M -7): 0.2985% and 1.206% and 0.0001019% and 1.64%
- Response %, plateau (binding equilibrium) (log [Antagonist] M -8): 7.079% and 5.855% and 4.45E-19% and 3.075%
